Where two headings read alike, the source gives them in different places.
Legend:
[1] = target: T1, human histamine H1 receptor (Homo sapiens, UniProt P35367); test: [3H]mepyramine binding, histamine H1 receptor; settings: for Ki: read-out: Histamine H1 (pK1) (converted)
T1 construct: host or cells: COS-7, transient, DEAE-dextran
Description: The coding sequence of the human histamine H1 receptor, homologous to the bovine H1 receptor, was obtained from a human hippocampal cDNA library, and was cloned into the eukaryotic expression vector pCEXV-3. The plasmid DNA for the H1 receptor is designated pcEXV-H1, and was deposited on Nov. […] This construct was transfected into COS-7 cells by the DEAE-dextran method.

[2] = target: T2, human α1A adrenergic receptor (Homo sapiens, UniProt P25100); test: Radioligand binding, [3H]prazosin, cloned human α1A adrenergic receptor
T2 sequence (P25100 1-572): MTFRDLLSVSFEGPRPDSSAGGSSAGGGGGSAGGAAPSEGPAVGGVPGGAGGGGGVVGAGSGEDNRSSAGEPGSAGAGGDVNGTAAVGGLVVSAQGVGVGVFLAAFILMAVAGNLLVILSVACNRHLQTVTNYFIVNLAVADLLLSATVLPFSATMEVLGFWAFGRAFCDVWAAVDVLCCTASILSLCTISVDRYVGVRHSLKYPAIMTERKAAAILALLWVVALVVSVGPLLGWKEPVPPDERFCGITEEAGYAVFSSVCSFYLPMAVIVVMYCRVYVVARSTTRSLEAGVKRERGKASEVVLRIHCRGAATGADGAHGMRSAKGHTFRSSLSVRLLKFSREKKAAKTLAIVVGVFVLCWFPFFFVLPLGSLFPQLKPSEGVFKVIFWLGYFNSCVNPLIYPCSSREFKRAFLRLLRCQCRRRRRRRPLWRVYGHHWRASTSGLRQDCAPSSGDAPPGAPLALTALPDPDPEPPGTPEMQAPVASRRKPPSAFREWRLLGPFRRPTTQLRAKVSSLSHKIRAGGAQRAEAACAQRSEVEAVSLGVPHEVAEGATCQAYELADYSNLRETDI

human 5HT1E receptor = target: T3, human 5HT1E receptor (Homo sapiens, UniProt P28566); test: [3H]serotonin competition binding, 5HT1E receptor
T3 construct: host or cells: LM(tk-) clonal cell line 5HT1E-7
T3 sequence (P28566 whole entry): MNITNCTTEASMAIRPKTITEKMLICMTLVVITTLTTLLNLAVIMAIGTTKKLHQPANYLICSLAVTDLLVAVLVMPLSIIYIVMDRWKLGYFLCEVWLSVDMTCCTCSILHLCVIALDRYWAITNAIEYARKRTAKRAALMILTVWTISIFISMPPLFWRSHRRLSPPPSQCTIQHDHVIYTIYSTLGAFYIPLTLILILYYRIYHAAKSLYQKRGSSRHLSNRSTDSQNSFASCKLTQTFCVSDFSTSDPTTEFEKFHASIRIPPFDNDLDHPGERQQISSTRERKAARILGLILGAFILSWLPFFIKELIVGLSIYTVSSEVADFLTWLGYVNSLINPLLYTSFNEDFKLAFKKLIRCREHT
Procedure: 5HT1Dα, 5HT1Dβ, 5HT1E, 5HT1F Receptors: The cell lysates of LM(tk−) clonal cell line stably transfected with the genes encoding each of these 5HT receptor-subtypes were prepared as described above. The cell line for the 5HT1Dα receptor, designated as Ltk-8-30-84, was deposited on Apr. […] The cell for the 5HT1Dβ receptor, designated as Ltk-11, was deposited on Apr. […] The cell line for the 5HT1E receptor, designated 5 HT1E-7, was deposited on Nov. […] The cell line for the 5HT1F receptor, designated L-5-HT1F, was deposited on Dec. […] These preparations were suspended in 50 mM Tris-HCl buffer (pH 7.4 at 37° C.) containing 10 mM MgCl2, 0.2 mM EDTA, 10 μM pargyline, and 0.1% ascorbate.

[3] = target: T4, human α2A adrenergic receptor (Homo sapiens, UniProt P08913); test: Competition binding, [3H]rauwolscine, α2A receptor
T4 sequence (P08913 1-465): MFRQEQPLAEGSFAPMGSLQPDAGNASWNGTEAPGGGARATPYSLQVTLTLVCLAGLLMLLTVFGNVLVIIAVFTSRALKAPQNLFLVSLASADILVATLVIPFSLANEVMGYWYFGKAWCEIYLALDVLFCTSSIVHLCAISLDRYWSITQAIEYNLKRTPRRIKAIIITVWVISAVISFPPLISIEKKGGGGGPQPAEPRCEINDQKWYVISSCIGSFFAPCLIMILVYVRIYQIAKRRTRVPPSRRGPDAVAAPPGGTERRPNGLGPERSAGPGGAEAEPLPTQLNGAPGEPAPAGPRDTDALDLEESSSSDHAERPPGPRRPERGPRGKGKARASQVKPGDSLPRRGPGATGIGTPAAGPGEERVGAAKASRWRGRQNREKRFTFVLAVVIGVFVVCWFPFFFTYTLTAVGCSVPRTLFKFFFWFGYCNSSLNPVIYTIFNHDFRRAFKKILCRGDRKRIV
Procedure: To determine the potency of α1 antagonists at the α2 receptors, LM(tk−) cell lines stably transfected with the genes encoding the α2A, α2B, and α2C receptors were used. The cell line expressing the α2A receptor is designated L-α2A, and was deposited on Nov. […] The cell line expressing the α2B receptor is designated L-NGC-α2B, and was deposited on Oct. […] The cell line expressing the α2C receptor is designated L-α2C, and was deposited on Nov. […] Cell lysates were prepared as described above (see Radioligand Binding Assays), and suspended in 25 mM glycylglycine buffer (pH 7.6 at room temperature).

[4] = target: T5, human α1C adrenergic receptor (Homo sapiens, UniProt P35348); test: Radioligand binding, [3H]prazosin, cloned human α1C adrenergic receptor
T5 construct: The entire coding region of α1C (1401 bp); expressed in transfected cells
T5 sequence (P35348 1-466): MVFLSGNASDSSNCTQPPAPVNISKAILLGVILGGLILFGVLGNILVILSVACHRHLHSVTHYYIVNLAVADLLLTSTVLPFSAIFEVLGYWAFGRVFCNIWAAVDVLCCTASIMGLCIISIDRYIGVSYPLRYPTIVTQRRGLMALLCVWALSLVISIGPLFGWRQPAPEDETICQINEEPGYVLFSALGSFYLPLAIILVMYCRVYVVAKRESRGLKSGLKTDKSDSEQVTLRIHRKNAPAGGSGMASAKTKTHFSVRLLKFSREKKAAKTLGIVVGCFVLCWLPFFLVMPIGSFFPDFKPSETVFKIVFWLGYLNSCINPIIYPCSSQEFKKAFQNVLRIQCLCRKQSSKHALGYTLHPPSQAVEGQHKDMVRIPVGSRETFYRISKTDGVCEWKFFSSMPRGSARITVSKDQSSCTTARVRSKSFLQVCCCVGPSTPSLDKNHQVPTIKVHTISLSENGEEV
Description: The construct involved ligating three partial overlapping fragments: a 5′ 0.6 kb HincII genomic clone, a central 1.8 EcoRI hippocampal cDNA clone, and a 3′ 0.6 Kb PstI genomic clone. The hippocampal cDNA fragment overlaps with the 5′ and 3′ genomic clones so that the HincII and PstI sites at the 5′ and 3′ ends of the cDNA clone, respectively, were utilized for ligation. This full-length clone was cloned into the KpnI site of the expression vector, using the 5′ and 3′ KpnI sites of the fragment, derived from vector (i.e., pBluescript) and 3′-untranslated sequences, respectively. Stable cell lines were selected as described above.

[5] = Table 2, cloned human receptor, read-out: Alpha-2 Adrenergic a2a (pK1) (converted)
[6] = Table 2, cloned human receptor, read-out: Serotonin 5HT1E (pK1)

T1 sequence (P35367 whole entry): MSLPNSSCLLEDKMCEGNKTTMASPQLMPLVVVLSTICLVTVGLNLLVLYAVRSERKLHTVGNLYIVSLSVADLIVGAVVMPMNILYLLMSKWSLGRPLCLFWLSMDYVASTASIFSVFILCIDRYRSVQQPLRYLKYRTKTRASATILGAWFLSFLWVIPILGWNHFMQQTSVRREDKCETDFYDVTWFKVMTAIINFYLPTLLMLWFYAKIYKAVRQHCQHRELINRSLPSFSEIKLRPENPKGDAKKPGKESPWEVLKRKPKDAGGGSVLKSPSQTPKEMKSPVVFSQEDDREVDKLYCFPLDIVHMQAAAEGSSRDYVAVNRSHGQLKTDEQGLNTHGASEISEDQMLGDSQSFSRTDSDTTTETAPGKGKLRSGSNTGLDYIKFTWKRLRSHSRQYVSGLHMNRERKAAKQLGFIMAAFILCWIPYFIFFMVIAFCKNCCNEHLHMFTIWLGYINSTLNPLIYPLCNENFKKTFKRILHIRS

Row | Molecule | Serotonin 5HT1E (pK1) (human 5HT1E receptor; Table 2, cloned human receptor) | Histamine H1 (pK1) ([1]; Table 2, cloned human receptor) | Alpha-1 Adrenergic a1A (pK1) ([2]; Table 2, cloned human receptor) | Alpha-2 Adrenergic a2a (pK1) ([3]; Table 2, cloned human receptor) | Human Alpha-1 Adrenergic (pK1) a1C ([4]; Table 1, cloned human receptor) | Alpha-1 Adrenergic a1C (pK1) ([4]; Table 2, cloned human receptor) | Ki ([1]; Table 2, cloned human receptor) [nM] | other results
1 | 4-fluoro-4-(8-fluoro-1,3,4,5-tetrahydro-2H-pyrido[4,3-b]indol-2-yl)butyrophenone hydrochloride [Compound A-30360, reference compound] | <5.0 |  |  |  |  |  |  | Histamine H1 (pK1) [1]: 6.03; Alpha-1 Adrenergic a1A (pK1) [2]: 7.49; Alpha-2 Adrenergic a2a (pK1) [3]: 6.69; Alpha-1 Adrenergic a1C (pK1) [4]: 8.52; Human Alpha-1 Adrenergic (pK1) a1C [4]: 8.52
2 | COc1ccccc1N1CCN(CCCNc2c(C)c(=O)n(C)c(=O)n2C)CC1 [5-Methyl-Urapidil, 5-methylurapidil, reference compound] |  | 5.16 | 7.79 | 6.63 | 8.35 | 8.35 |  | 
3 | O=C(CCCN1CCC(NC(=O)c2ccccc2)CC1)c1ccc(Cl)cc1 [Compound 7] | <5.0 | 7.59 | 6.82 |  | 8.42 | 8.42 |  | 
4 | COC(=O)C1=C(C)NC(C)=C(C(=O)OCCCN2CCC(c3ccccc3)(c3ccccc3)CC2)C1c1ccc([N+](=O)[O-])cc1.Cl (stereo not drawn) [Compound 8, 2,6-Dimethyl-4-(4-nitrophenyl)-1,4-dihydropyridine-3,5-dicarboxylic acid [3-(4,4-diphenylpiperidin-1-yl)propyl] ester methyl ester hydrochloride] |  |  | 6.52 | 5.99 |  |  | 214 | Ki (human 5HT1E receptor): > 10000 nM; Alpha-1 Adrenergic a1C (pK1) [4]: 8.48; Human Alpha-1 Adrenergic (pK1) a1C [4]: 8.48
5 | O=C(CCCN1CCC(NC(=O)c2ccccc2)CC1)c1ccccc1 [Compound 9] | <5.0 | 7.29 | 6.12 | 5.80 | 7.83 | 7.83 |  | 
6 | COc1ccc(CCNCC2CCc3ccccc3C2)cc1 (stereo not drawn) [Compound 11, 2-[(4-Methoxyphenethyl)aminomethyl]-1,2,3,4-tetrahydronaphthalene] |  |  | 6.81 |  |  | 8.36 | 1820 | Ki [2]: 155 nM; Ki (human 5HT1E receptor): > 10000 nM; Ki [3, 5]: 138 nM; Ki ([4]; Table 1, cloned human receptor, read-out: Human Alpha-1 Adrenergic (pK1) a1C (converted)): 4.37 nM; binding affinity at α1C receptors relative to binding affinities at other receptors ([4]; versus the other receptors of Table 2): greater than ten-fold higher
7 | O=C(NC1CCN(CCc2c[nH]c3ccccc23)CC1)c1ccccc1 [Indoramin, reference compound] |  |  |  |  |  |  | 42.7 | Ki (human 5HT1E receptor; [6]): > 10000 nM; Ki [3, 5]: 11500 nM; selectivity for the human α1C receptor relative to the other human α-adrenergic receptors ([4]; cloned human receptors): slightly selective
8 | C=Cc1sc2ccc(Cl)c3c2c1CN(C)CC3 [SKF-104856, 7-Chloro-2-ethenyl-3,4,5,6-tetrahydro-4-methylthieno[4,3,2-ef][3]benzazepine, reference compound] |  |  |  |  | 7.60 | 7.60 | 2570 | Ki (human 5HT1E receptor; [6]): > 1000 nM; Ki [3]: 50.1 nM

— patent publication US6602888B2, “Use of α1C specific compounds to treat benign prostatic hyperplasia” (Synaptic Pharmaceutical Corporation, priority 1992, dated 2003)
